Drawing on patent publication EP3134439B1, “ANTI-PSYK ANTIBODY MOLECULES AND USE OF SAME FOR SYK-TARGETED THERAPY” (Millennium Pharmaceuticals, Inc., priority 2014, dated 2015), this text covers IC50, EC50 and TGI for one compound.

The structures appear in SMILES notation. Marks after values point to notes of the source that are not given here.

One assay deals with VEGFR. Nature of the assay: VEGFR enzyme inhibition. The format is biochemical.
Another assay relates to DLBCL cell lines. Nature of the assay: Inhibition of cellular proliferation. The format is cell-based. To be noted: subset of relevant models.
For assay [1], the system named is PHTX-95L primary DLBCL tumor xenografts. Nature of the assay: Anti-tumor activity, PHTX-95L xenograft model. It counts as in vivo, SCID mice. The source says: (§1) Mean tumor volumes (mm^3) ± SEM (N=8/group) are shown where treatment was initiated when mean tumor volume was approximately 200 mm3.
Assay [2] concerns OCI-LY10 ABC DLBCL xenografts. Nature of the assay: Anti-tumor activity, OCI-LY10 xenograft model. The format is in vivo, SCID mice.
Description: as §1

A further assay deals with HBL-1 (ABC). Nature of the assay: Anti-tumor activity, HBL-1 xenograft model. It counts as in vivo.
The next assay relates to TMD8 (ABC). Nature of the assay: Anti-tumor activity, TMD8 xenograft model. It counts as in vivo. To be noted: 60 mg/kg; TGI calculated on Day 14.
For the next assay, the system named is WSU. Nature of the assay: Anti-tumor activity, WSU xenograft model. The format is in vivo.
Assay [3] has as its system OCI-LY19 GCB DLBCL xenografts. Nature of the assay: Anti-tumor activity, OCI-LY19 xenograft model. The format is in vivo, SCID mice.
Description: as §1

[4] abbreviates: 60 mg/kg orally once daily for 21 days.
[5] abbreviates: 120 mg/kg orally once daily for 21 days.
Setting [6] is: daily oral administration of 60 mg/kg.

For orientation: IC50 means the concentration that gives 50% inhibition. Read a high IC50 as weaker potency. A word on the EC50: it is the concentration giving half of the maximal effect.

For the compound `Cn1cc(-c2nc(N[C@@H]3CCCC[C@@H]3N)c(F)c3c2C(=O)NC3)cn1` [Compound A, 6-((1R,2S)-2-Aminocyclohexylamino)-7-fluoro-4-(1-methyl-1H-pyrazol-4-yl)-1H-pyrrolo[3,4-c]pyridin-3(2H)-one], the IC50 on VEGFR came to 140 nM. In the assay with DLBCL cell lines, this compound displayed an EC50 of 25 to 400 nM. In addition, the TGI was found to be 56% in assay [1] (setting [4]); 70% in assay [1] (setting [5]); 70% in assay [1] (daily oral administration, 120 mg/kg); 50% in assay [2] (setting [4]); 59% in assay [2] (setting [5]); 50% in assay [2] (setting [6]). The TGI is reported as 32% in the assay with HBL-1 (ABC) (60 mg/kg); 36% with HBL-1 (ABC) (120 mg/kg); 45%* with TMD8 (ABC); 52% with WSU (60 mg/kg); “approximately 50%” with WSU (setting [6]); 33%** in assay [3] (60 mg/kg orally once daily for 14 days, TGI calculated on Day 16). The same compound had a TGI in assay [3] (setting [6]) of 37%.
